The numbers were not newly measured in US12296036B2, “Method for dyeing keratinous material, including the application of an organosilicon compound, a dyeing compound, a sealing reagent and an alkaline pre-treatment agent” (HENKEL AG & CO. KGAA, priority 2021, dated 2025), which cites them from elsewhere.

SMILES strings stand for the structures.

Take `CCN(Cc1cccc(S(=O)(=O)[O-])c1)c1ccc(C(=C2C=CC(=[N+](CC)Cc3cccc(S(=O)(=O)[O-])c3)C=C2)c2ccccc2S(=O)(=O)[O-])cc1.[Na+].[Na+]` [Acid Blue 9]: for the setting “25° C.”, the water solubility result is given as “more than 20 wt. %”. As to `O=S(=O)([O-])c1ccc(N=Nc2c(O)ccc3ccccc23)cc1.[Na+]` [Acid Orange 7, sodium salt of 4-[(2-hydroxy-1-naphthyl)azo]benzene sulphonate], for the setting “25° C.”, the solubility in water entry was “more than 7 g/L”.

Take `Nc1cc(S(=O)(=O)[O-])cc2cc(S(=O)(=O)[O-])c(N=Nc3ccccc3)c(O)c12.[Na+].[Na+]` [Acid Red 33, disodium salt of 5-amino-4-hydroxy-3-(phenylazo)-naphthalene-2,7-disulfonate]: where the note is “25° C.”, the solubility in water is 2.5 mg/mL. In the case of `O=C([O-])c1c(Cl)c(Cl)c(Cl)c(Cl)c1-c1c2cc(Br)c(=O)c(Br)c-2oc2c(Br)c([O-])c(Br)cc12.[Na+].[Na+]` [Acid Red 92, disodium salt of 3,4,5,6-tetrachloro-2-(1,4,5,8-tetrabromo-6-hydroxy-3-oxanthene-9-yl) benzoic acid], where the note is “25° C.”, the solubility in water result is recorded as “greater than 10 g/L”. With `O=C([O-])C1=NN(c2ccc(S(=O)(=O)[O-])cc2)C(=O)C1N=Nc1ccc(S(=O)(=O)[O-])cc1.[Na+].[Na+].[Na+]` (centres unmarked) [Acid Yellow 23, trisodium salt of 4,5-dihydro-5-oxo-1-(4-sulfophenyl)-4-((4-sulfophenyl)azo)-1H-pyrazole-3-carboxylic acid], the “solubility in water (in words)” value (in water at 25° C.) is recorded as “readily soluble”.
